Reference: PubChem BioAssay (NCI)
Where “and” joins values, the source holds several entries; their conditions need not be identical. Identical values can stand only once.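 Cells were grown in 96-well plates and exposed to each compound for 48 hours at five concentrations; endpoints were interpolated linearly between bracketing concentrations, or set to the highest concentration if not reached. At the GI50, growth is halved. TGI is the concentration that stops growth completely.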

Assays:
Assay in all cases: inhibition of tumour cell growth, NCI panel, 48 h
UACC-62 melanoma = test system: UACC-62 melanoma
SF-539 CNS = test system: SF-539 CNS
NCI-H23 lung = test system: NCI-H23 lung
K-562 leukemia = test system: K-562 leukemia
T-47D breast = test system: T-47D breast
NCI-H522 lung = test system: NCI-H522 lung
MDA-MB-231 breast = test system: MDA-MB-231 breast
ACHN renal = test system: ACHN renal
MOLT-4 leukemia = test system: MOLT-4 leukemia
HCT-15 colon = test system: HCT-15 colon
MALME-3M melanoma = test system: MALME-3M melanoma
SW-620 colon = test system: SW-620 colon
SNB-19 CNS = test system: SNB-19 CNS
TK-10 renal = test system: TK-10 renal
NCI-H460 lung = test system: NCI-H460 lung
MDA-MB-435 = test system: MDA-MB-435
SN12C renal = test system: SN12C renal
RPMI-8226 leukemia = test system: RPMI-8226 leukemia
HOP-62 NSCLC = test system: HOP-62 NSCLC
SF-268 CNS = test system: SF-268 CNS
HT29 colon = test system: HT29 colon
SK-MEL-2 melanoma = test system: SK-MEL-2 melanoma
U251 CNS = test system: U251 CNS
KM12 colon = test system: KM12 colon
SF-295 CNS = test system: SF-295 CNS
OVCAR-5 ovarian = test system: OVCAR-5 ovarian
M14 melanoma = test system: M14 melanoma
HCT-116 colon = test system: HCT-116 colon
NCI/ADR-RES ovarian = test system: NCI/ADR-RES ovarian
786-0 renal = test system: 786-0 renal
SK-OV-3 ovarian = test system: SK-OV-3 ovarian
PC-3 prostate = test system: PC-3 prostate
DU-145 prostate = test system: DU-145 prostate
NCI-H226 lung = test system: NCI-H226 lung
CCRF-CEM leukemia = test system: CCRF-CEM leukemia
CAKI-1 renal = test system: CAKI-1 renal
LOX IMVI melanoma = test system: LOX IMVI melanoma
SK-MEL-28 melanoma = test system: SK-MEL-28 melanoma
IGROV1 ovarian = test system: IGROV1 ovarian
HL-60(TB) leukemia = test system: HL-60(TB) leukemia
SK-MEL-5 melanoma = test system: SK-MEL-5 melanoma
SR leukemia = test system: SR leukemia
UO-31 renal = test system: UO-31 renal
MCF7 breast = test system: MCF7 breast
OVCAR-8 ovarian = test system: OVCAR-8 ovarian
UACC-257 melanoma = test system: UACC-257 melanoma
OVCAR-3 ovarian = test system: OVCAR-3 ovarian
OVCAR-4 ovarian = test system: OVCAR-4 ovarian
SNB-75 CNS = test system: SNB-75 CNS
COLO 205 colon = test system: COLO 205 colon
HOP-92 NSCLC = test system: HOP-92 NSCLC
A549 NSCLC = test system: A549 NSCLC
A498 renal = test system: A498 renal
RXF 393 renal = test system: RXF 393 renal
BT-549 breast = test system: BT-549 breast
EKVX NSCLC = test system: EKVX NSCLC

COc1c(OCCCN2CCOCC2)ccc2c3n(c(=NC(=O)c4cnc(N)nc4)nc12)CCN3 was tested, and the GI50 (UACC-62 melanoma) was 48.3 nM [middle of 4 runs], the TGI (UACC-62 melanoma) was 464 nM [middle of 4 runs] and the TGI (SF-539 CNS) was 664 nM [middle of 4 runs]. For the same compound, the GI50 (NCI-H23 lung) was 398 nM [middle of 4 runs], the TGI (NCI-H23 lung) was greater than 100000 nM and the GI50 (K-562 leukemia) was 1.68 µM [middle of 4 runs]. The TGI (K-562 leukemia) was greater than 100000 nM, the GI50 (T-47D breast) was 7.5 nM and 2.58 nM and < 10 nM and the TGI (T-47D breast) was 39.4 nM and 40.8 nM and 30.2 nM. The GI50 (NCI-H522 lung) was 138 nM [middle of 4 runs], the GI50 (MDA-MB-231 breast) was 339 nM [middle of 4 runs] and the GI50 (ACHN renal) was 72.3 nM [middle of 4 runs]. For the same compound, the TGI (ACHN renal) was greater than 100000 nM, the GI50 (MOLT-4 leukemia) was 36.3 nM and 40.9 nM and 28.3 nM and the GI50 (HCT-15 colon) was 59.9 nM [middle of 4 runs]. For the same compound, the TGI (HCT-15 colon) was greater than 100000 nM, the TGI (MALME-3M melanoma) was 448 nM [middle of 4 runs] and the GI50 (SW-620 colon) was 216 nM [middle of 4 runs]. The TGI (SW-620 colon) was greater than 100000 nM, the GI50 (SNB-19 CNS) was 297 nM [middle of 4 runs] and the TGI (SNB-19 CNS) was greater than 100000 nM. The TGI (TK-10 renal) was 198 nM and 782 nM, the GI50 (NCI-H460 lung) was 39.7 nM [middle of 4 runs] and the TGI (NCI-H460 lung) was greater than 100000 nM. For the same compound, the GI50 (MDA-MB-435) was 142 nM [middle of 4 runs], the GI50 (SN12C renal) was 88.5 nM [middle of 4 runs] and the TGI (SN12C renal) was greater than 100000 nM. For the same compound, the GI50 (RPMI-8226 leukemia) was 220 nM and 174 nM and 323 nM, the TGI (RPMI-8226 leukemia) was 2050 nM and > 10000 nM and the GI50 (HOP-62 NSCLC) was 132 nM [middle of 4 runs]. The TGI (HOP-62 NSCLC) was greater than 100000 nM, the TGI (SF-268 CNS) was greater than 100000 nM and the GI50 (HT29 colon) was 17.7 nM and 24.9 nM and 10.9 nM. The TGI (HT29 colon) was greater than 100000 nM, the GI50 (SK-MEL-2 melanoma) was 197 nM [middle of 4 runs] and the TGI (U251 CNS) was greater than 100000 nM. The GI50 (KM12 colon) was 368 nM [middle of 4 runs], the GI50 (SF-295 CNS) was 74.8 nM [middle of 4 runs] and the TGI (SF-295 CNS) was 814 nM [middle of 4 runs]. The GI50 (OVCAR-5 ovarian) was 31.2 nM [middle of 4 runs], the TGI (OVCAR-5 ovarian) was greater than 100000 nM and the GI50 (M14 melanoma) was 118 nM [middle of 4 runs]. The GI50 (HCT-116 colon) was 109 nM [middle of 4 runs], the TGI (HCT-116 colon) was greater than 100000 nM and the GI50 (NCI/ADR-RES ovarian) was 428 nM [middle of 4 runs]. The TGI (NCI/ADR-RES ovarian) was greater than 100000 nM, the GI50 (786-0 renal) was 91.3 nM [middle of 4 runs] and the TGI (SK-OV-3 ovarian) was 67.3 nM and 446 nM and 74.5 nM. The TGI (PC-3 prostate) was greater than 100000 nM, the TGI (DU-145 prostate) was greater than 100000 nM and the GI50 (NCI-H226 lung) was 144 nM [middle of 4 runs]. For the same compound, the TGI (NCI-H226 lung) was greater than 100000 nM, the GI50 (CCRF-CEM leukemia) was 48.9 nM [middle of 4 runs] and the TGI (CCRF-CEM leukemia) was greater than 100000 nM. The TGI (CAKI-1 renal) was 3380 nM and > 10000 nM and 2400 nM, the GI50 (LOX IMVI melanoma) was 64.9 nM [middle of 4 runs] and the TGI (SK-MEL-28 melanoma) was 7660 nM and 810 nM and 1640 nM. The TGI (IGROV1 ovarian) was 40.3 nM [middle of 4 runs], the TGI (HL-60(TB) leukemia) was greater than 75000 nM and the GI50 (SK-MEL-5 melanoma) was 228 nM [middle of 4 runs]. For the same compound, the TGI (SK-MEL-5 melanoma) was 1.51 µM [middle of 4 runs], the GI50 (SR leukemia) was 315 nM [middle of 4 runs] and the GI50 (UO-31 renal) was 22.4 nM and 23.8 nM and 24.5 nM. The TGI (MCF7 breast) was greater than 100000 nM, the GI50 (OVCAR-8 ovarian) was 228 nM [middle of 4 runs] and the TGI (OVCAR-8 ovarian) was greater than 100000 nM. The GI50 (UACC-257 melanoma) was 77.4 nM [middle of 4 runs], the GI50 (OVCAR-3 ovarian) was 36.2 nM and 28.3 nM and 126 nM and the TGI (OVCAR-3 ovarian) was 890 nM and 976 nM and 4920 nM. The GI50 (OVCAR-4 ovarian) was 469 nM and 391 nM and 438 nM, the TGI (OVCAR-4 ovarian) was > 75000 nM and 10800 nM and 7650 nM and the GI50 (SNB-75 CNS) was 7.5 nM and < 12.3 nM and < 10 nM. For the same compound, the TGI (SNB-75 CNS) was 50.4 nM and 33 nM and the GI50 (COLO 205 colon) was 38.1 nM [middle of 4 runs].

Compound CCCCCCCCCCCCC[N+](C)(C)Cc1ccccc1 has a GI50 (HOP-92 NSCLC) of 338 nM, a TGI (HOP-92 NSCLC) of 1830 nM and a GI50 (UACC-62 melanoma) of 633 nM. It also gave a TGI (UACC-62 melanoma) of 1950 nM, a GI50 (SF-539 CNS) of 1450 nM and a TGI (SF-539 CNS) of 2970 nM. It also gave a GI50 (A549 NSCLC) of 1610 nM, a TGI (A549 NSCLC) of 3170 nM and a GI50 (T-47D breast) of 336 nM. For the same compound, the TGI (T-47D breast) was 1710 nM, the GI50 (MDA-MB-231 breast) was 1350 nM and the TGI (MDA-MB-231 breast) was 2900 nM. For the same compound, the GI50 (ACHN renal) was 3410 nM, the TGI (ACHN renal) was 12800 nM and the GI50 (HCT-15 colon) was 5080 nM. It also gave a TGI (HCT-15 colon) of 25400 nM, a GI50 (TK-10 renal) of 871 nM and a TGI (TK-10 renal) of 2210 nM. The GI50 (SN12C renal) was 1200 nM, the TGI (SN12C renal) was 2610 nM and the GI50 (RPMI-8226 leukemia) was 451 nM. The TGI (RPMI-8226 leukemia) was 2520 nM, the GI50 (HT29 colon) was 493 nM and the TGI (HT29 colon) was 1930 nM. It also gave a GI50 (A498 renal) of 1440 nM, a TGI (A498 renal) of 5010 nM and a GI50 (SF-295 CNS) of 1420 nM. The TGI (SF-295 CNS) was 2870 nM, the GI50 (OVCAR-5 ovarian) was 1470 nM and the TGI (OVCAR-5 ovarian) was 2920 nM. It also gave a GI50 (RXF 393 renal) of 385 nM, a TGI (RXF 393 renal) of 1600 nM and a GI50 (BT-549 breast) of 1130 nM. For the same compound, the TGI (BT-549 breast) was 2420 nM, the GI50 (M14 melanoma) was 1040 nM and the TGI (M14 melanoma) was 2400 nM. For the same compound, the GI50 (EKVX NSCLC) was 1570 nM, the TGI (EKVX NSCLC) was 4520 nM and the GI50 (HCT-116 colon) was 925 nM. The TGI (HCT-116 colon) was 2140 nM, the GI50 (NCI/ADR-RES ovarian) was 18000 nM and the TGI (NCI/ADR-RES ovarian) was 50500 nM. It also gave a GI50 (786-0 renal) of 1560 nM, a TGI (786-0 renal) of 3070 nM and a GI50 (SK-OV-3 ovarian) of 1310 nM. It also gave a TGI (SK-OV-3 ovarian) of 2600 nM, a GI50 (PC-3 prostate) of 306 nM and a TGI (PC-3 prostate) of 1400 nM. For the same compound, the GI50 (DU-145 prostate) was 1420 nM, the TGI (DU-145 prostate) was 2740 nM and the GI50 (CAKI-1 renal) was 4990 nM. It also gave a TGI (CAKI-1 renal) of 23000 nM, a GI50 (SK-MEL-28 melanoma) of 1520 nM and a TGI (SK-MEL-28 melanoma) of 2890 nM. The GI50 (IGROV1 ovarian) was 477 nM, the TGI (IGROV1 ovarian) was 1820 nM and the GI50 (HL-60(TB) leukemia) was 680 nM. The TGI (HL-60(TB) leukemia) was 2150 nM, the GI50 (SK-MEL-5 melanoma) was 874 nM and the TGI (SK-MEL-5 melanoma) was 2110 nM. For the same compound, the GI50 (UO-31 renal) was 2050 nM, the TGI (UO-31 renal) was 6420 nM and the GI50 (UACC-257 melanoma) was 1360 nM. For the same compound, the TGI (UACC-257 melanoma) was 2850 nM, the GI50 (SNB-75 CNS) was 1500 nM and the TGI (SNB-75 CNS) was 2970 nM. The GI50 (COLO 205 colon) was 1140 nM and the TGI (COLO 205 colon) was 2450 nM.
